Patent publication US20070270350A1, “Methods and Compositions for the Prevention and Treatment of Inflammatory Diseases or Conditions” (MUSC FOUNDATION FOR RESEARCH DEVELOPMENT, priority 2003, published 2007)
“Also recorded” adds a separate entry of the source.

Assays:
NF-κB = NF-κB reporter, gel shift and IκB phosphorylation after LPS/IFN; assay type: cell-based, rat
Method: (§1) Western Blot Analysis. For iNOS protein, the cells were washed with cold Tris buffered saline (TBS; 20 mM Trizma base, and 137 mM NaCl, pH 7.5), lysed in 1×SDS sample loading buffer (62.5 mM Trizma base, 2% w/v SDS, 10% glycerol), following sonication and centrifugation at 1,5000×g for 5 min, the supernatant was used for the iNOS western immunoblot assay. The protein concentration of samples was determined with the detergent compatible protein assay reagent (Bio-Rad Laboratories, CA) using bovine serum albumin (BSA) as the standard. Sample was boiled for 3 min with 0.1 volumes of 10% O-mercaptoethanol and 0.5% bromophenol blue mix. Fifty μg of total cellular protein was resolved by electrophoresis in 8 or 12% polyacrylamide gels, electro-transferred to polyvinylidene difluoride (PVDF) filter and blocked with Tween 20 containing Tris-buffered saline [TBST; 10 mM Trizma base (pH 7.4), 1% Tween 20, and 150 mM NaCl] with 5% skim milk. After incubation with antiserum against iNOS (BD PharMingen, CA), or hRas (Upstate Biotechnology, CA), or phospho-specific MAPK (p42/44) (Signal Transduction), in PVDF buffer for 2 h at room temperature, the filters were washed 3 times with TBST buffer and then incubated with horseradish peroxidase conjugated anti-rabbit or mouse IgG for 1 h. The membranes were autoradiographed by using ECL-plus (Amersham Pharmacia Biotech) after washing with TBST buffer.
Nuclear Extraction and Electrophoretic mobility shift assay. Nuclear extracts from cells (1×10^7 cells) were prepared using previously published method (Dignam et al., 1983) with slight modification. Cells were harvested, washed twice with ice-cold TBS, and lysed in 400 μl of buffer A containing, 10 mM KCl, 2 mM MgCl2, 0.5 mM dithiothreitol, protease inhibitor cocktail (Sigma), and 0.1% Nonidet P40 in 10 mM HEPES, pH 7.9 for 10 min on ice. Following centrifugation at 5,000×g for 10 min, the pelleted nuclei were washed with buffer A without Nonidet P40, and re-suspended in 40 μl of buffer B containing 25% (v/v) glycerol, 0.42 M NaCl, 1.5 mM MgCl2, 0.2 mM EDTA, 0.5 mM dithiothreitol, and Complete™ protease inhibitor cocktail (Roche) in 20 mM HEPES, pH7.9 for 30 min on ice. The lysates were centrifuged at 15,000×g for 15 min and the supernatants containing the nuclear proteins were stored at −70° C. until use. Ten μg of nuclear proteins was used for the electrophoretic mobility shift assay for detection of AP-1, NFκB, and C/EBP DNA binding activities. DNA-protein binding reactions were carried out at room temperature for 20 min in 10 mM Trizma base (pH 7.9), 50 mM NaCl, 5 mM MgCl2, 1 mM EDTA, 1 mM dithiothreitol, 1 μg poly (dl-dC), 5% (v/v) glycerol, and approximately 0.3 pmol of NFκB (Santa Cruz Biotech) labeled with DIG-ddUTP using terminal deoxynucleotidyl transferase (Roche). Protein-DNA complexes were resolved from protein-free DNA in 5% polyacrylamide gels at room temperature in 50 mM Tris, pH 8.3, 0.38 M glycine, and 2 mM EDTA, and electroblotted onto positively charged nylon membranes. The chemiluminescence detection method for DIG-labeled probes is identical to the method described for the non-isotopic northern blot analysis in the preceding.
Transient Transfections and Reporter Gene Assay. 3×10^5 cells/well were cultured in 6-well plates for one day before the transfection. Transfection was performed with plasmid concentration constant (2.5 μg/transfection) and 8 μl of Fugene transfection reagent (Roche Molecular Biochemicals). One day after transfection, the cells were placed in serum free media for overnight. Following appropriate treatment, the cells were washed with phosphate buffered saline (PBS), scrapped, and then resuspended with 100 μl of lysis buffer (40 mM of Tricine pH 7.8, 50 mM of NaCl, 2 mM of EDTA, 1 mM of MgSO4, 5 mM of dithiothreitol, and 1% of Triton X-100). After incubation in room temperature for 15 min with occasional vortexing, the samples were centrifuged. […]

SCI rats = assay type: in vivo
[1] = cited from earlier work
ERK1/2 = ERK1/2 phosphorylation by immunoblot after LPS/IFN; assay type: cell-based, rat; settings: D-PDMP pretreatment; LPS/IFN 20 minutes
Method: as §1

[2] = D-PDMP 20 mg/kg, 24 hrs following injury

CCCCCCCCCC(=O)NC(CN1CCOCC1)C(O)c1ccccc1.Cl [D-PDMP, D-threo-1-Phenyl-2-decanoylamino-3-morpholino-1-propanol HCl]
LPS/IFN induced luciferase activity (κB-repeat luciferase) (NF-κB; D-PDMP 0.5 hr before LPS/IFN): abolished | phosphorylation of IκB (NF-κB; in the presence of D-PDMP): Decreased | NF-κB DNA binding activity (electrophoresis mobility shift assay) (NF-κB; increasing doses of D-PDMP, LPS/IFN 45 minutes): inhibited | iNOS mRNA and protein expression at the site of injury (SCI rats; D-PDMP 20 mg/Kg i.p. within 10 minutes following SCI, 12 hrs): markedly suppresses; also recorded: significantly lower | GFAP expression (immunofluorescence, lesion epicenter) (SCI rats; [2]): significantly reduced | iNOS expression (immunofluorescence, lesion epicenter) (SCI rats; [2]): significantly reduced | SCI induced white matter vacuolization and tissue necrosis (H&E) (SCI rats; D-PDMP treated SCI rats): inhibited | apoptosis of neurons and other cells (TUNEL/NeuN) (SCI rats; D-PDMP treated SCI rats): protection against apoptosis | demyelinization (LFB staining) (SCI rats; D-PDMP treated SCI rats): attenuated | adverse effect on neuronal survival (SCI rats; D-PDMP treated sham operated animals): no adverse effect | solubility in water [1]: soluble | LPS/IFN induced phosphorylation of ERK 1/2 (ERK1/2): inhibited
